The source of these data is patent publication US20190008147A1, “COMPOSITION CONTAINING 1,2-DIBROMO-2,4-DICYANOBUTANE (DBDCB) AND AT LEAST ONE ORGANIC ACID AND/OR THE DERIVATIVES THEREOF” (priority 2015, published 2019).

Holding throughout (format): cell-based
One experiment concerns Bacillus subtilis. As to the kind of experiment: Minimum inhibitory concentration and synergistic index (Kull). The settings on record: Table 8. From the text: (§1) [formula] • where: • Qa=the amount of component A in the active substance mixture which achieves the desired effect, i.e. no microbial growth, • QA=the amount of component A which, when used on its own, suppresses the growth of the microorganisms, • Qb=the amount of component B in the active substance mixture which achieves the desired effect, i.e. no microbial growth, • and • QB=the amount of component B which, when used on its own, suppresses the growth of the microorganisms.
(§2) A synergistic index obtained according to the above formula of SI<1 indicates a synergistic effect for the active substance mixture.
(§3) Using various test pathogens, the minimum inhibitory concentration was determined and, on the basis thereof with the aid of the formula by F. C. Kull et al., the synergistic effects of the listed compositions according to the invention were calculated.

The next experiment has as its system Aspergillus brasiliensis. Described as above. Particulars: Table 9.
From the text: as §1, §2, §3

The next experiment relates to Pseudomonas aeruginosa. The experiment is described as above. Particulars: for QA: amount of DBDCB used on its own that suppresses growth.
From the text: as §1, §2, §3

A further experiment deals with Alternaria alternata. Described as above. Particulars: for QA: amount of DBDCB used on its own that suppresses growth.
From the text: as §1, §2, §3

The subject of experiment [1] is Molds: Acremonium strictum, Aspergillus niger and Geotrichum candidum. Kind of experiment: Microbiological load test, preservation of a dishwashing liquid: molds. Particulars: M = molds, 1 week after pathogen addition, biocide added [wt %]: A DBDCB 0.05, B salicylic acid 0.02, C DBDCB 0.02 and salicylic acid 0.016. An excerpt:
(§4) The preserving effect of an inventive composition comprising DBDCB and Salix alba extract in a dishwashing liquid was investigated using a microbiological load test. The microbiological load test examines the susceptibility of water-based products to microbial attack and the effect of preservatives. To this end, the preservatives are incorporated in defined concentrations into the water-based systems. […] With knowledge of the microorganism populations prevalent in detergents of the type described here, the experiment employed a mixture of the following microorganism species for testing: Molds: Acremonium strictum, Aspergillus niger and Geotrichum candidum. […] The activity is deemed poor when, compared to the unpreserved sample, no reduction or only a minor reduction of the microbe level is observed (residual level of at least 10^5 bacteria/10^4 mold cells/yeast cells per g) (score of 0=poor). The following compositions were used in the experiments depicted in table 10: • A: DBDCB • B: […]

A further experiment deals with Staphylococcus aureus. As to the kind of experiment: Minimum inhibitory concentration and synergistic index (Kull). Particulars: Table 1.
From the text: as §1, §2, §3

The next experiment concerns Geotrichum candidum. The experiment is described as above. The settings on record: Table 3.
From the text: as §1, §2, §3

The subject of experiment [2] is Yeasts: Candida albicans and Rhodotorula rubra. As to the kind of experiment: Microbiological load test, preservation of a dishwashing liquid: yeasts. The settings on record: Y = yeasts, 1 week after pathogen addition, biocide added [wt %]: A DBDCB 0.05, B salicylic acid 0.02, C DBDCB 0.02 and salicylic acid 0.016.
From the text: as §4, with “Yeasts: Candida albicans” for “Molds: Acremonium strictum, Aspergillus niger”, “Rhodotorula rubra.” for “Geotrichum candidum.”

The test system of experiment [3] is Bacteria: Escherichia coil, Pseudomonas aeruginosa, Staphylococcus aureus, Pseudomonas putida, Enterobacter gergoviae. As to the kind of experiment: Microbiological load test, preservation of a dishwashing liquid: bacteria. Particulars: B = bacteria, 1 week after pathogen addition, biocide added [wt %]: A DBDCB 0.05, B salicylic acid 0.02, C DBDCB 0.02 and salicylic acid 0.016.
From the text: as §4, with “Bacteria: Escherichia coil, Pseudomonas aeruginosa, Staphylococcus aureus, Pseudomonas putida, Enterobacter gergoviae” for “Molds: Acremonium strictum, Aspergillus niger and Geotrichum candidum.”

The mark [4] stands for this setting: amount of benzoic acid used on its own that suppresses growth.
Where [5] appears, read: amount of DBDCB used on its own that suppresses growth.
The mark [6] stands for this setting: amount of citric acid used on its own that suppresses growth.

With `O=C(O)c1ccccc1` [benzoic acid], the QB with Bacillus subtilis (setting [4]) was found to be 3000 ppm; in the experiment on Aspergillus brasiliensis (setting [4]), 1000 ppm.
In the case of `CC(O)C(=O)O` (stereo not drawn) [lactic acid], the QB in the experiment with Pseudomonas aeruginosa (amount of lactic acid used on its own that suppresses growth, Table 4) was determined as 3001 ppm; in the experiment with Alternaria alternata (amount of lactic acid used on its own that suppresses growth, Table 5), 3001 ppm.
Regarding `N#CCCC(Br)(C#N)CBr` (stereo not drawn) [DBDCB, 1,2-dibromo-2,4-dicyanobutane], the “Activity of the biocides in a dishwashing liquid, molds, Week 1” value in experiment [1] (week 1) was 3 (3 = very good activity). Besides, the “Activity of the biocides in a dishwashing liquid, molds, Week 2” value in experiment [1] (week 2) is recorded as 3 (3 = very good activity). For the same compound, the “Activity of the biocides in a dishwashing liquid, molds, Week 3” value in [1] (week 3) is listed as 0 (0 = poor activity). In addition, the “Activity of the biocides in a dishwashing liquid, molds, Week 4” value in experiment [1] (week 4) was 0 (0 = poor activity). Moreover, the “Activity of the biocides in a dishwashing liquid, molds, Week 5” value in experiment [1] (week 5) is listed as 0 (0 = poor activity). Moreover, the “Activity of the biocides in a dishwashing liquid, molds, Week 6” value in experiment [1] (week 6) is given as 0 (0 = poor activity). The QA in the experiment with Staphylococcus aureus (setting [5]) was 50 ppm; in the experiment with Bacillus subtilis (setting [5]), 25 ppm; in the experiment with Pseudomonas aeruginosa (Table 4), 500 ppm; in the experiment on Pseudomonas aeruginosa (Table 6), 250 ppm; with Aspergillus brasiliensis (setting [5]), 250 ppm; in the experiment on Alternaria alternata (Table 2), 25 ppm. The QA in the experiment on Alternaria alternata (Table 5) is 25 ppm; in the experiment with Alternaria alternata (Table 7), 25 ppm; in the experiment on Geotrichum candidum (setting [5]), 100 ppm. Also, the “Activity of the biocides in a dishwashing liquid, yeasts, Week 1” value in experiment [2] (week 1) was 3 (3 = very good activity). For the same compound, the “Activity of the biocides in a dishwashing liquid, yeasts, Week 2” value in [2] (week 2) is 3 (3 = very good activity). Also, the “Activity of the biocides in a dishwashing liquid, yeasts, Week 3” value in experiment [2] (week 3) is reported as 0 (0 = poor activity). Also, the “Activity of the biocides in a dishwashing liquid, yeasts, Week 4” value in experiment [2] (week 4) is reported as 0 (0 = poor activity). In addition, the “Activity of the biocides in a dishwashing liquid, yeasts, Week 5” value in experiment [2] (week 5) is recorded as 0 (0 = poor activity). Moreover, the “Activity of the biocides in a dishwashing liquid, yeasts, Week 6” value in [2] (week 6) is given as 0 (0 = poor activity). Moreover, the “Activity of the biocides in a dishwashing liquid, bacteria, Week 1” value in experiment [3] (week 1) is recorded as 1 (1 = fair activity). In addition, in experiment [3] (week 2), the “Activity of the biocides in a dishwashing liquid, bacteria, Week 2” value is 0 (0 = poor activity). The “Activity of the biocides in a dishwashing liquid, bacteria, Week 3” value in experiment [3] (week 3) is 0 (0 = poor activity). Also, the “Activity of the biocides in a dishwashing liquid, bacteria, Week 4” value in experiment [3] (week 4) is given as 0 (0 = poor activity). Moreover, the “Activity of the biocides in a dishwashing liquid, bacteria, Week 5” value in experiment [3] (week 5) is 0 (0 = poor activity). Besides, in [3] (week 6), the “Activity of the biocides in a dishwashing liquid, bacteria, Week 6” value is reported as 0 (0 = poor activity).
Regarding `O=C(O)c1ccccc1O` [salicylic acid], the QB in the experiment on Pseudomonas aeruginosa (amount of salicylic acid used on its own that suppresses growth, Table 6) is given as 3001 ppm; with Alternaria alternata (amount of salicylic acid used on its own that suppresses growth, Table 7), 500 ppm.
On to `O=C(O)CC(O)(CC(=O)O)C(=O)O` [citric acid], for which the QB in the experiment with Staphylococcus aureus (setting [6]) is given as 3001 ppm; in the experiment with Alternaria alternata (amount of citric acid used on its own that suppresses growth, Table 2), 3001 ppm; in the experiment on Geotrichum candidum (setting [6]), 3001 ppm.
